Assay results published in paper PMC5863496, “Mesobuthus Venom-Derived Antimicrobial Peptides Possess Intrinsic Multifunctionality and Differential Potential as Drugs” (Frontiers in Microbiology, 2018).
Ends that are not written are not given here.

Experiments:
[1] = system: S. aureus PRSA P1383; assay: Killing kinetics; format: cell-based, Staphylococcus aureus; settings: 5x CL (20 μg/ml)
Protocol: The in vitro killing curve for MeuTXKβ1 was determined against the bacterium S. aureus PRSA P1383. For the assay, a single fresh colony was inoculated into LB (Luria-Bertani) medium (10 g tryptone, 5 g yeast extract, and 5 g NaCl in 1 l of H2O) and incubated at 37°C until OD600 of 0.2. The initial concentration used was 4 × 10^7 cells/ml. Samples for colony counts were taken at time 0, 5, 10, 15, 20, 30, and 60 min after addition of peptides. Results are given as colony-forming units (CFUs) per milliliter.

[2] = Serum stability; format: in vitro ADME; settings: fresh mouse serum, 37°C, read-out inhibition zone on S. aureus PRSA P1383 plates
Protocol: (§1) To assess serum stability, peptides were dissolved in H2O or fresh mouse serum for the indicated times at 37°C and their residual activity was measured by the inhibition-zone assay (Hultmark, [1998]).

[3] = system: penicillin-resistant Staphylococcus aureus P1383; assay: Inhibition-zone assay (CL); format: cell-based; settings: concentration used in killing kinetics and membrane permeation
Protocol: (§2) The antimicrobial activity of seven peptides, including MeuFSPL-1, MeuFSPL-2, Marmelittin, Melittin, Meucin-22, Marcin-22, and MeuTXKβ1, was evaluated by the inhibition-zone assay previously described in our studies (Hultmark, [1998]; Zhu et al., [2012a]; Zhu and Gao, [2014]). Temperatures used were 30 or 37°C for bacteria or 28°C for fungi. Media used were Luria-Bertani (LB) Broth (10 g tryptone, 5 g yeast extract, and 5 g NaCl in 1 l of water) or Nutrient Broth (10 g peptone, 5 g beef extract powder, and 5 g NaCl in 1 l of water) or GYM(Isp2) (4 g yeast extract, 10 g malt extract, 4 g glucose, 2 g CaCO3 in 1 l of water) for bacteria or Potato Dextrose Broth (200 g patato and 20 g glucose in 1 l of water) for fungi. To make plates, 10 μl of microbial culture (~2 × 10^6 bacterial cells or fungal spores/ml) were mixed in 6 ml of medium containing 0.8% agar and poured into Peri dishes of 9.0 cm diameter. Wells with a diameter of 2 mm were punched into the medium, filled with 2 μl of sample each well. In this assay, three different doses of peptides were applied to three independent wells in one standard bacterial plate. After incubation overnight, inhibition zones were measured and used to calculate lethal concentrations (CL), a concentration just sufficient to inhibit bacterial growth (Hultmark, [1998]; Gao et al., [2009]). CL values are calculated from a plot of d^2 against log n, where d is the diameter (in cm) and n is the amount of sample applied in the well (in nmol). The plot is linear and thus CL can be calculated from the slope (k) and the intercept (m) of this plot. The formula used here is CL = 2.93/ak10^m/k, where “a” is the thickness of the bacterial plate and “CL” is in μM.

[4] = Stability in H2O; format: physicochemical; settings: 37°C, read-out inhibition zone on S. aureus PRSA P1383 plates
Protocol: as §1

[5] = system: Streptomyces griseus NBRC 13350; assay: Inhibition-zone assay (CL); format: cell-based; settings: SG NBRC 13350, N.A. = no activity at 0.8 nmol peptide each well
Protocol: as §2

[6] = system: Stenotrophomonas maltophilia CGMCC 1.1788; assay: Inhibition-zone assay (CL); format: cell-based; settings: SMAL CGMCC 1.1788, N.A. = no activity at 0.8 nmol peptide each well
Protocol: as §2

[7] = system: Staphylococcus aureus J710; assay: Inhibition-zone assay (CL); format: cell-based; settings: SA J710, N.A. = no activity at 0.8 nmol peptide each well
Protocol: as §2

[8] = system: penicillin-resistant Staphylococcus epidermidis P1389; assay: Inhibition-zone assay (CL); format: cell-based; settings: PRSE P1389, N.A. = no activity at 0.8 nmol peptide each well
Protocol: as §2

[9] = system: Staphylococcus aureus J706; assay: Inhibition-zone assay (CL); format: cell-based; settings: SA J706, N.A. = no activity at 0.8 nmol peptide each well
Protocol: as §2

[10] = system: Staphylococcus aureus J708; assay: Inhibition-zone assay (CL); format: cell-based; settings: SA J708, N.A. = no activity at 0.8 nmol peptide each well
Protocol: as §2

[11] = system: Bacillus subtilis CGMCC 1.2428; assay: Inhibition-zone assay (CL); format: cell-based; settings: BS CGMCC 1.2428, N.A. = no activity at 0.8 nmol peptide each well
Protocol: as §2

[12] = system: Streptococcus salivarius ATCC 1.2498; assay: Inhibition-zone assay (CL); format: cell-based; settings: SSAL ATCC 1.2498, N.A. = no activity at 0.8 nmol peptide each well
Protocol: as §2

[13] = system: Streptomyces scabiei CGMCC 4.1765; assay: Inhibition-zone assay (CL); format: cell-based; settings: SSCA CGMCC 4.1765, N.A. = no activity at 0.8 nmol peptide each well
Protocol: as §2

[14] = system: penicillin-sensitive Staphylococcus epidermidis P1111; assay: Inhibition-zone assay (CL); format: cell-based; settings: PSSE P1111, N.A. = no activity at 0.8 nmol peptide each well
Protocol: as §2

[15] = system: Streptococcus mutans ATCC 1.2499; assay: Inhibition-zone assay (CL); format: cell-based; settings: SM ATCC 1.2499, N.A. = no activity at 0.8 nmol peptide each well
Protocol: as §2

[16] = system: Staphylococcus aureus J698; assay: Inhibition-zone assay (CL); format: cell-based; settings: SA J698, N.A. = no activity at 0.8 nmol peptide each well
Protocol: as §2

[17] = system: Staphylococcus aureus J700; assay: Inhibition-zone assay (CL); format: cell-based; settings: SA J700, N.A. = no activity at 0.8 nmol peptide each well
Protocol: as §2

[18] = system: methicillin-resistant coagulase-negative Staphylococcus P1369; assay: Inhibition-zone assay (CL); format: cell-based; settings: MRCNS P1369, N.A. = no activity at 0.8 nmol peptide each well
Protocol: as §2

[19] = system: Staphylococcus warneri ATCC 1.2824; assay: Inhibition-zone assay (CL); format: cell-based; settings: SW ATCC 1.2824, N.A. = no activity at 0.8 nmol peptide each well
Protocol: as §2

[20] = system: Streptococcus sanguinis ATCC 1.2497; assay: Inhibition-zone assay (CL); format: cell-based; settings: SSAN ATCC 1.2497, N.A. = no activity at 0.8 nmol peptide each well
Protocol: as §2

[21] = system: methicillin-sensitive Staphylococcus aureus CGMCC 1.89; assay: Inhibition-zone assay (CL); format: cell-based; settings: MSSA CGMCC 1.89, N.A. = no activity at 0.8 nmol peptide each well
Protocol: as §2

[22] = system: Staphylococcus aureus J685; assay: Inhibition-zone assay (CL); format: cell-based; settings: SA J685, N.A. = no activity at 0.8 nmol peptide each well
Protocol: as §2

[23] = 24 h, three independent experiments

Compound: CN[C@H](CC(C)C)C(=O)N[C@H]1C(=O)N[C@@H](CC(N)=O)C(=O)N[C@H]2C(=O)N[C@H]3C(=O)N[C@H](C(=O)N[C@H](C(=O)O)c4cc(O)cc(O)c4-c4cc3ccc4O)[C@H](O)c3ccc(c(Cl)c3)Oc3cc2cc(c3O[C@@H]2O[C@H](CO)[C@@H](O)[C@H](O)[C@H]2O[C@H]2C[C@](C)(N)[C@H](O)[C@H](C)O2)Oc2ccc(cc2Cl)[C@H]1O [vancomycin]
- killing rate compared with MeuTXKβ1 [1]: slower killing rate
- residual activity after incubation in mouse serum ([2]; 6 h): remained its full activity
- residual activity after incubation in mouse serum [2, 23]: completely lose
- 5x CL for P1383 [3]: 20 µg/mL
- residual activity after incubation in H2O ([4]; 6 h): remained its full activity
- residual activity after incubation in H2O [4, 23]: completely lose

Compound: IFGAIAGLLKNIF-NH2 [MUC-13, reference compound]
- Lethal concentration (CL) [5]: 53.31 µM
- Lethal concentration (CL) [6]: 4.89 µM
- Lethal concentration (CL) [7]: 7.10 µM
- Lethal concentration (CL) [8]: 24.06 µM
- Lethal concentration (CL) [9]: 5.67 µM
- Lethal concentration (CL) [10]: 7.54 µM
- Lethal concentration (CL) [11]: 6.24 µM
- Lethal concentration (CL) [12]: 7.54 µM
- Lethal concentration (CL) [13]: 15.07 µM
- Lethal concentration (CL) [14]: 10.24 µM
- Lethal concentration (CL) [15]: 10.24 µM
- Lethal concentration (CL) [16]: 7.54 µM
- Lethal concentration (CL) [17]: 7.54 µM
- Lethal concentration (CL) [18]: 33.80 µM
- Lethal concentration (CL) [19]: 6.24 µM
- Lethal concentration (CL) [20]: 6.24 µM
- Lethal concentration (CL) [21]: 10.24 µM
- Lethal concentration (CL) [22]: 10.16 µM
